≈ marks a conversion by molar mass, not a printed value. Where “and” joins values, the source holds several entries; their conditions need not be identical. Identical values can stand only once. Like-named read-outs stand apart in the source and are kept apart here. *1 amine or outer side, *2 acyl side, *3 side chain or, on linkers, in order; H or OH if unused. Where a SMILES comes first, the peptide text is derived from it. [ ]: non-standard residue; d: D form. X5 = C=CCn1cc(C[C@@H](C(=O)[*:2])N(C)[*:1])c2ccccc21; X1 = C#CCn1cc(C[C@H](N[*:1])C(=O)[*:2])c2ccccc21; NMeLeu(5-OH,4R) = CN[C@@H](C[C@@H](C)CO)C(=O)O; Phe(βR-OMe) = CO[C@H](c1ccccc1)[C@H](N)C(=O)O; NMeL = CN[C@@H](CC(C)C)C(=O)O
Experiments:
[1] = type: in vitro ADME, Mice
Description: (§1) The kinetics of compound degradation in liver microsomes is assessed in an assay with 1 µmol/l of compound and 0.5 mg/ml liver microsomes in a medium of 100 mM Tris-HCl pH 7.5, 6.5 mM MgCl2 and 1 mM NADPH at 37 °C. The reaction is stopped at multiple time points by adding acetonitrile. After centrifugation, the compound concentration is measured in the supernatants by high-performance liquid chromatography (HPLC) tandem mass spectrometry (MS/MS). The results are fitted to a first-order decay and the half-lives are converted to clearance (stated as % of the liver blood flow (%Qh)) using the well-stirred liver model.

[2] = molecular target: ClpC1 NTD protein (M. tuberculosis) (Mycobacterium tuberculosis, UniProt P9WPC9); experiment: biochemical; type: binding; settings: for koff: read-out: koff ClpC1-NTD
Chain of ClpC1 NTD protein (M. tuberculosis) (P9WPC9 1-156, looked up, natural form): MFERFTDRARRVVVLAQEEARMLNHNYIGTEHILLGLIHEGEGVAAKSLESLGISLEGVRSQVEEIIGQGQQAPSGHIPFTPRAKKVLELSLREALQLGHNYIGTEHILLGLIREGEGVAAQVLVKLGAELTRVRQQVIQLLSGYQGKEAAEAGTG

Caco-2 monolayers = experiment: in vitro; settings: for CACO permeability PEAB: apical to basolateral; for CACO permeability PEBA: basolateral to apical; for Caco-2 Int. Perm: mean value of P(A−B) and P(B−A)
From the text: (§2) Supplementary Table 1. Structure-Activity Relationships part 1 (SPR, Caco-2) […]
(§3) SPR. Mean values ± standard deviation. Footnotes indicate the number of measurements performed for the respective compound: a) n = […]
(§4) [5] Permeability across Caco-2 monolayers in P(A−B): apical to basolateral and P(B−A): basolateral to apical direction (values reported in 10-
(§5) 6 cm s-1); efflux ratio = P(B−A)/P(A−B); Int. perm: mean value of P(A−B) and P(B−A). […] Influence of Trp-Nα methylation on P(A-B) and efflux
(§6) ratio. Bold: positive influence.

in vitro = settings: human; for efflux ratio: Caco-2; for Papp A→B: apical to basolateral; for Papp B→A: basolateral to apical
From the text: as §2, §3, §4, §5, §6

[3] = type: in vitro ADME, Rat; settings: for Hepatocyte Rat: clearance in hepatocytes
Description: (§7) Cryopreserved hepatocytes are incubated in an appropriate buffer system containing 50% species serum. Following an acclimation period (15–30 min) in an incubator (37 °C, 5−10% CO2, 85–95% humidity) the test compound is added to the hepatocyte suspension (pH 7.4, typical cell density of about 1 million cells/mL; final concentration of test compound is 1 µM, final DMSO concentration <0.05% v/v). The cells are incubated for up to 6 h and samples are taken at 6 different time points. Samples are then quenched with acetonitrile and pelleted by centrifugation. The remaining amount of parent compound in the supernatants is then analysed by HPLC-MS/MS. Clearance is calculated from compound half-lives using the well-stirred liver model and is converted to clearance stated as % of the liver blood flow (% Qh).

[4] = Hepatocyte stability, mice; type: in vitro ADME; settings: for Hepatocyte Mice: clearance in hepatocytes
Description: as §7

[5] = Microsomal stability, human; type: in vitro ADME; settings: for Microsomal Stability Human: clearance in microsomes
Description: as §1

[6] = type: in vitro ADME, Rat; settings: for Microsomal Stability Rat: clearance in microsomes
Description: as §1

[7] = type: in vitro ADME, Human; settings: for Hepatocyte Human: clearance in hepatocytes
Description: as §7

Mtb ATCC 35825 = experiment: microbe, parasite or virus in culture; type: cell-based
Mtb # 8673 = experiment: microbe, parasite or virus in culture; type: cell-based
Mtb # 11291 = experiment: microbe, parasite or virus in culture; type: cell-based; settings: for MIC: read-out: MIC Mtb # 11291
[8] = SPR (Supplementary Table 1), read-out: KD ClpC1-NTD Mean ± SD
[9] = SPR, single independent measurements
[10] = SPR, single independent measurements, read-out: KD ClpC1-NTD
[11] = Mycobacterium tuberculosis, ATCC35825, mean, n = 2 well replicates
[12] = Mycobacterium tuberculosis, ATCC35825, single well replicates
[13] = Mycobacterium tuberculosis, mean, n = 2 well replicates
[14] = Mycobacterium tuberculosis, single well replicates

In the case of `C#CCn1cc(C[C@@H]2NC(=O)[C@H](C(C)C)NC(=O)[C@H](CC(C)C)N(C)C(=O)[C@H](C(C)C)NC(=O)[C@H](Cc3ccccc3)NC(=O)[C@H](C)NC(=O)[C@H](C[C@@H](C)CO)N(C)C2=O)c2ccccc21` [SI-72] (cyclo(AFV[NMeL]V[X1][NMeLeu(5-OH,4R)])), the “Microsomal Stability Mouse QH” value ([1]; Mouse) is reported as over 88.400%, the “Microsomal Stability Mice” value ([1]; clearance in microsomes) is reported as over 88 %Qh and the Kd [2, 8] is reported as 14 ± 6 nM. The “koff ClpC1-NTD” value [2, 9] was 0.05 s⁻¹, the Kd [2, 10] was 17.7 nM and 9.9 nM and the koff [2, 9] was 0.07 s⁻¹. The “CACO permeability PEAB” value (Caco-2 monolayers) was 0.29000000000000003 ×10⁻⁶ cm/s, the “CACO permeability PEBA” value (Caco-2 monolayers) was 9.999999999999999 ×10⁻⁶ cm/s and the “Caco-2 Int. Perm” value (Caco-2 monolayers) was 6.4 10-6 cm s-1. It also gave an efflux ratio (in vitro) of 61.4, a Papp A→B (in vitro; Caco-2, CACO permeability PEAB) of 0.17 ×10⁻⁶ cm/s and a Papp B→A (in vitro; Caco-2, CACO permeability PEBA) of 15 ×10⁻⁶ cm/s. For the same compound, the Papp A→B (in vitro; Caco-2, Caco-2 permeability P (A-B)) was 0.2 ×10⁻⁶ cm/s, the Papp B→A (in vitro; Caco-2, Caco-2 permeability P (B-A)) was 12.5 ×10⁻⁶ cm/s and the “Hepatocyte Stability Rat QH” value [3] was 81.5% and 81.75%. The “Hepatocyte Rat” value [3] was 82 %Qh, the “Hepatocyte Mice” value [4] was 71 %Qh and the “Microsomal Stability Human QH” value [5] was over 88.400%. The “Microsomal Stability Human” value [5] was over 88 %Qh, the “Microsomal Stability Rat QH” value [6] was 87.300% and the “Microsomal Stability Rat” value [6] was 87 %Qh. For the same compound, the “Hepatocyte Stability Human QH” value [7] was 23.35% and 19.57% and the “Hepatocyte Human” value [7] was 12 %Qh.
For `C=CCn1cc(C[C@H]2C(=O)N(C)[C@@H](C[C@@H](C)CO)C(=O)N[C@@H](C)C(=O)N[C@@H]([C@H](OC)c3ccccc3)C(=O)N[C@@H](C(C)C)C(=O)N(C)[C@@H](CC(C)C)C(=O)N[C@@H](C(C)C)C(=O)N2C)c2ccccc21` [SI-60] (cyclo(A[Phe(βR-OMe)]V[NMeL]V[X5][NMeLeu(5-OH,4R)])), the Kd [2, 8] was 8 ± 3 nM, the “koff ClpC1-NTD” value [2, 9] was 0.04 s⁻¹ and the Kd [2, 10] was 9.87 nM and 5.93 nM. The koff [2, 9] was 0.03 s⁻¹, the “CACO permeability PEAB” value (Caco-2 monolayers) was 35 ×10⁻⁶ cm/s and the “CACO permeability PEBA” value (Caco-2 monolayers) was 88 ×10⁻⁶ cm/s. For the same compound, the “Permeability Correlation P (A-B)” value (Caco-2 monolayers; influence of Trp-Nα methylation on P(A-B), matched pair, listed under the methylated partner) was 14.6, the “Permeability Correlation Ratio” value (Caco-2 monolayers; influence of Trp-Nα methylation on efflux ratio, matched pair, listed under the methylated partner) was 3.2 and the “Caco-2 Int. Perm” value (Caco-2 monolayers) was 61.5 10-6 cm s-1. It also gave an efflux ratio (in vitro) of 2.5, a Papp A→B (in vitro; Caco-2, CACO permeability PEAB) of 46 ×10⁻⁶ cm/s and a Papp B→A (in vitro; Caco-2, CACO permeability PEBA) of 49 ×10⁻⁶ cm/s. The “Hepatocyte Stability Rat QH” value [3] was 57.215%, the “Hepatocyte Rat” value [3] was 57 %Qh and the “Hepatocyte Stability Mouse QH” value ([4]; Mouse) was 61.367%. For the same compound, the “Hepatocyte Mice” value [4] was 61 %Qh, the “Microsomal Stability Human QH” value [5] was over 88.400% and the “Microsomal Stability Human” value [5] was over 88 %Qh. For the same compound, the “Microsomal Stability Rat QH” value [6] was over 87.900%, the “Microsomal Stability Rat” value [6] was over 88 %Qh and the “Hepatocyte Stability Human QH” value [7] was 50.176%. The “Hepatocyte Human” value [7] was 50 %Qh.
In the case of `[H]/N=C(/N)N[C@H]1[C@H](O)[C@@H](O)[C@H](O[C@@H]2O[C@@H](C)[C@](O)(C=O)[C@H]2O[C@@H]2O[C@@H](CO)[C@H](O)[C@@H](O)[C@@H]2NC)[C@@H](N/C(N)=N\[H])[C@@H]1O` [Streptomycin], the MIC (Mtb ATCC 35825; [11]) is reported as 27.5 µM and 16 µg/mL, the MIC (Mtb ATCC 35825; [12]) is reported as 16 µg/mL and 27.5 µM and the MIC (Mtb ATCC 35825; single well replicates) is reported as 27.51 µM (≈ 16 µg/mL). The “MIC Mtb ATCC 35825” value (Mtb ATCC 35825; single well replicates) was 16 µg/mL (≈ 27.5 µM), the MIC (Mtb # 8673; [13]) was 6.9 µM and 4 µg/mL and the MIC (Mtb # 8673; [14]) was 6.88 µM and 4 µg/mL. The MIC (Mtb # 8673; single well replicates) was 6.88 µM (≈ 4 µg/mL), the “MIC Mtb # 8673” value (Mtb # 8673; single well replicates) was 4 µg/mL (≈ 6.88 µM) and the MIC (Mtb # 11291; [13]) was 0.4 µM and 0.3 µg/mL. The MIC (Mtb # 11291; [14]) was 0.43 µM and 0.25 µg/mL, the “MIC Mtb # 11291” value (Mtb # 11291; single well replicates) was 0.25 µg/mL (≈ 0.43 µM) and the MIC (Mtb # 11291; single well replicates) was 0.43 µM (≈ 0.25 µg/mL).
In the case of `Nc1ccc(C(=O)O)c(O)c1` [p-Aminosalicylic acid], the MIC (Mtb ATCC 35825; [11]) is reported as 104 µM and 16 µg/mL, the MIC (Mtb ATCC 35825; [12]) is reported as 16 µg/mL and 104 µM and the MIC (Mtb ATCC 35825; single well replicates) is reported as 104.48 µM (≈ 16 µg/mL). The “MIC Mtb ATCC 35825” value (Mtb ATCC 35825; single well replicates) was 16 µg/mL (≈ 104 µM), the MIC (Mtb # 8673; [13]) was 6.5 µM and 1 µg/mL and the MIC (Mtb # 8673; [14]) was 6.53 µM and 1 µg/mL. For the same compound, the MIC (Mtb # 8673; single well replicates) was 6.53 µM (≈ 1 µg/mL), the “MIC Mtb # 8673” value (Mtb # 8673; single well replicates) was 1 µg/mL (≈ 6.53 µM) and the “MIC Mtb # 11291” value (Mtb # 11291; single well replicates) was 1 µg/mL (≈ 6.53 µM). It also gave an MIC (Mtb # 11291; single well replicates) of 6.53 µM (≈ 1 µg/mL).

— PMC10914731, “Homo-BacPROTAC-induced degradation of ClpC1 as a strategy against drug-resistant mycobacteria” (Nature Communications, 2024)
